Laboratory results published in US7101878B1 (Agouron Pharmaceuticals, Inc., priority 1998, dated 2006).

Columns and labels:
rat GnRH receptor = target: T1, rat GnRH receptor (Rattus norvegicus, UniProt P30969); experiment: Radioligand binding, 125I-GnRH-A, rat pituitary membranes; parameters: membranes were prepared from rat pituitary; from tissue; host or cells: rat pituitary; settings: read-out: rGnRH IC50
T1 sequence (P30969 1-327): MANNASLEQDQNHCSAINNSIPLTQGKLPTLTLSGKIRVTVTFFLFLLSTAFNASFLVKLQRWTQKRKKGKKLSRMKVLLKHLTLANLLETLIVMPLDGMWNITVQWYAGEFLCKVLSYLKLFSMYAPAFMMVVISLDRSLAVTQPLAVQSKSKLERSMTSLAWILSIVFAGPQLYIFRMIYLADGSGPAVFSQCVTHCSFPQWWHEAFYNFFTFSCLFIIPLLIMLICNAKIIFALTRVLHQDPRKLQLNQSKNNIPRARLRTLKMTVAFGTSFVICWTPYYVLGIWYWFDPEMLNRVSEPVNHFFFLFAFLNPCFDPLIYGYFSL
Procedure: All compounds were diluted in 1% DMSO (final assay concentration) in binding assay buffer. […] Reactions were terminated by rapid filtration onto 96-well Packard GF/C filters soaked in 0.1% polyethyleneimine. Filters were washed three times with PBS buffer, dried and counted on a Packard Topcount by liquid scintillation counting.
Assay conditions were identical for assessing compound activities at other species. […] IC50 values for control peptides and test compounds were calculated utilizing GraphPad Prism™ software.
The reaction mixture was vortexed and incubated for 1 min at room temperature. After one min, the mixture was vortexed and allowed to incubate for an additional minute. 2 ml of 0.5 M acetic acid/1% BSA was added to the reaction tube and the mixture was added to a C18 Sep-Pak cartridge. The cartridge was washed with subsequent washes of 5 ml H2O and 5 ml 0.5M acetic acid and then eluted with 5×1 ml of 60% CH3CN/40% 0.5M acetic acid. The eluate was diluted with 3× volume of HPLC buffer A (0.1% TFA in H2O) and loaded onto a C18 column. […] The radioactive fractions (750 ed/fraction) are collected into clean polypropylene tubes containing 100 μl of 10% BSA. Fractions were assessed for biological activity by radioligand binding.

[1] = Metabolism rate, pmol/min/mg at 1 μM, rat male; type: in vitro ADME; settings: 1 μM compound
human GnRH receptor = target: T2, human GnRH receptor (Homo sapiens, UniProt P30968); experiment: Radioligand binding, 125I-GnRH-A displacement, membranes of HEK 293 cells with human GnRH receptor; settings: read-out: hGnRH IC50
T2 construct: expressed in transfected cells; host or cells: HEK 293 (hGnRH-R/293, from Dr. Stuart Sealfon)
T2 sequence (P30968 1-328): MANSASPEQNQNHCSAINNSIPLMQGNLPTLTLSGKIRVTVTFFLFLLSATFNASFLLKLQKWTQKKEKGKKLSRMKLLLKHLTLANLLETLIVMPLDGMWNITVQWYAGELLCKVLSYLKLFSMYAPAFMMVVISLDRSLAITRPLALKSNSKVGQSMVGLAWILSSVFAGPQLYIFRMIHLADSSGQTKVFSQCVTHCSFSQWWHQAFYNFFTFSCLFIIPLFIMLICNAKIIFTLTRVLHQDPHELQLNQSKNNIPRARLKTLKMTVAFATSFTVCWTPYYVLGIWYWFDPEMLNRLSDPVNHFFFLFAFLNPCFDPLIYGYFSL
In short: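 After filtration and PBS washes, bound radioactivity was counted by scintillation and IC50 derived. Identical conditions applied for non-human receptors.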

mouse GnRH receptor = target: T3, mouse GnRH receptor (Mus musculus, UniProt Q01776); experiment: Radioligand binding, 125I-GnRH-A, 293 cells expressing mouse GnRH receptors; settings: read-out: mGnRH IC50
T3 construct: expressed in transfected cells; host or cells: 293 cells
T3 sequence (Q01776 1-327): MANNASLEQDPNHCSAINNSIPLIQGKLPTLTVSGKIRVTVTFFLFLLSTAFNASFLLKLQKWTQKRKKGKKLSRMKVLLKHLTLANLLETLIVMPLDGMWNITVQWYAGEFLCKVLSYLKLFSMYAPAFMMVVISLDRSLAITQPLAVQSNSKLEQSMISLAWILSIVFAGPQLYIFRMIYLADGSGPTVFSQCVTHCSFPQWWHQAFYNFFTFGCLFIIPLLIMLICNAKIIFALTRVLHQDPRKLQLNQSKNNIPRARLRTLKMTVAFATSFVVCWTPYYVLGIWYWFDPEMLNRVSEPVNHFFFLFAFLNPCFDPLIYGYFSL
In short: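 Bound label captured on 0.1% polyethyleneimine-treated GF/C filters, washed three times with PBS, counted. IC50 derived; identical set-up for every species.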

[2] = Metabolism rate, pmol/min/mg at 1 μM, human; type: in vitro ADME; settings: 1 μM compound
[3] = test system: LH levels in castrated rats; experiment: Castrated male rat model, LH suppression; type: in vivo
Description: Experimental Protocol: Male Sprague-Dawley (225-250 g) rats were castrated and allowed 10 days postoperative recovery. Ten days post castration animals were instrumented with indwelling femoral venous and arterial catheters to facilitate remote infusions and blood sampling. On the day of the experiment, animals were allowed to acclimate to the procedure room while residing in their home cage. Basal blood samples were drawn from all animals. Following basal sampling, either vehicle (10% DMSO, 10% cremophor/saline), Antide (1.0 μg) or compound 11 (10 mg/kg) was administered intravenously. Blood samples were drawn 10, 60, 90, 120, 180, 240 minutes after injections. Blood was centrifuged, serum collected and stored in −70° freezer until assayed. Serum samples were analyzed using DSL-4600 ACTIVE LH coated-tube immunoradiometric assay kit from Diagnostic Systems Laboratories, Inc.
Surgical removal of the gonads removes circulating testosterone and eliminates the negative feedback of testosterone on the hypothalamus. […] This model seems suitable for evaluating small molecule GnRH antagonists.
Male Sprague-Dawley ([…]) rats were castrated via the scrotal approach under halothane anesthesia. Animals were allowed 14 days post operative recovery prior to study. Thirteen days following castration, animals were anesthetized with halothane and instrumented with indwelling jugular vein cannula. Details of the cannulation procedure have been described previously {Harms and Ojeda, 1974)}. On study day, animals were allowed to acclimate to the procedure room while residing in their home cage. Basal blood samples were drawn from all animals. Immediately following basal sampling, vehicle or test compounds were administered by various routes. The routes of administration employed were intravenous (iv), intramuscular (im), intraperitoneal (ip), subcutaneous (sc) and oral (po). Blood samples were drawn into heparin containing tubes at multiple time points post treatment. Blood was centrifuged immediately, plasma collected and stored in −20° freezer until assayed. Plasma samples were analyzed using DSL-4600 ACTIVE LH coated-tube immunoradiometric assay kit from Diagnostic Systems Laboratories, Inc.
Formulation #1 (denoted with superscript 1): 10% DMSO, 10% Cremophor EL and 80% physiological saline.
Formulation #2 (denoted with superscript 2): 10% Cremophor EL and 90% physiological saline.

[4] = Pharmacokinetic studies / bioavailability in rats; type: in vivo, rat; settings: for Cmax / Tmax / half-life: female, rat, plasma; for Cmax / Tmax: po, 10 mg/kg, p.o. 10 mg/kg
[5] = rat female, 5 mg/ml solution in 10% DMSO 10% cremophor 80% saline

## COC(=O)[C@H]1CC[C@H](CNC(=O)c2ccc(Cc3cc4c(cc3C)C(C)(C)CCC4(C)C)o2)CC1 [Compound 68]
Rat GnRH receptor
  IC50: 890 nM
[1]
  Rat male pmol/min/mg 1 μM: 8125 pmol/min/mg
Human GnRH receptor
  IC50: 90 nM
Mouse GnRH receptor
  IC50: 1010 nM
[2]
  Human pmol/min/mg 1 μM: 2716 pmol/min/mg

## Cc1cc2c(cc1Cc1ccc(C(=O)NCC3CCC(CNc4nccc(NCC5CCCO5)n4)CC3)o1)C(C)(C)CCC2(C)C (stereo not drawn) [Compound 92]
Rat GnRH receptor
  IC50: 27 nM
[1]
  Rat male pmol/min/mg 1 μM: 1282 pmol/min/mg
Human GnRH receptor
  IC50: 80 nM
Mouse GnRH receptor
  IC50: 42 nM
[2]
  Human pmol/min/mg 1 μM: 241 pmol/min/mg

## Cc1cc2c(cc1Cc1ccc(C(=O)NCc3cccc4ccccc34)o1)C(C)(C)CCC2(C)C [Compound 95]
Rat GnRH receptor
  IC50: 60 nM
[1]
  Rat male pmol/min/mg 1 μM: 3356 pmol/min/mg
Human GnRH receptor
  IC50: 31 nM
Mouse GnRH receptor
  IC50: 21 nM
[2]
  Human pmol/min/mg 1 μM: 283 pmol/min/mg

## Cc1cc2c(cc1Cc1ccc(C(=O)Nc3ccc4[nH]ccc4c3)o1)C(C)(C)CCC2(C)C [Compound 96]
Rat GnRH receptor
  IC50: 90 nM
[1]
  Rat male pmol/min/mg 1 μM: 1692 pmol/min/mg
Human GnRH receptor
  IC50: 40 nM
Mouse GnRH receptor
  IC50: 130 nM
[2]
  Human pmol/min/mg 1 μM: 182 pmol/min/mg

## COc1ccc(NC(=O)c2ccc(Cc3cc4c(cc3C)C(C)(C)CCC4(C)C)o2)c(OC)c1 [Compound 99]
Rat GnRH receptor
  IC50: 108 nM
[1]
  Rat male pmol/min/mg 1 μM: 2549 pmol/min/mg
Human GnRH receptor
  IC50: 56 nM
Mouse GnRH receptor
  IC50: 105 nM
[2]
  Human pmol/min/mg 1 μM: 353 pmol/min/mg

## Cc1cc2c(cc1Cc1ccc(C(=O)Nc3ccc4[nH]ncc4c3)o1)C(C)(C)CCC2(C)C [Compound 109]
Rat GnRH receptor
  IC50: 140 nM
[1]
  Rat male pmol/min/mg 1 μM: 1055 pmol/min/mg
Human GnRH receptor
  IC50: 75 nM
Mouse GnRH receptor
  IC50: 140 nM
[2]
  Human pmol/min/mg 1 μM: 130 pmol/min/mg

## Cc1cc2c(cc1Cc1ccc(C(=O)Nc3cccc(B(O)O)c3)o1)C(C)(C)CCC2(C)C [Compound 119]
Rat GnRH receptor
  IC50: 1300 nM
[3]; 5.0 mg/kg iv
  % Max LH Suppression: 63%
  time of % Max LH Suppression: 1 h
  ≧50% Suppression Duration: 1 h
[3]; 10 mg/kg iv
  % Max LH Suppression: 61%
  time of % Max LH Suppression: 1 h
  ≧50% Suppression Duration: 1 h
[3]; 20 mg/kg ip
  % Max LH Suppression: 79%
  time of % Max LH Suppression: 2 h
  ≧50% Suppression Duration: 2 h
[3]; 20 mg/kg po
  % Max LH Suppression: 63%
  Range of Plasma Conc.: 0.1 µM
  time of % Max LH Suppression: 2 h
  ≧50% Suppression Duration: 2 h
[3]; 20 mg/kg sc
  Range of Plasma Conc.: 0.2 µM

## COc1cccc(OC)c1NC(=O)c1ccc(Cc2c(C)cc(C)cc2C)o1 [Compound 126]
[4]; [5]
  Cmax: 20 nM
  Tmax: 0.5 h
  Fp.o.: 2% (10 mg/kg)^10
[4]; rat female
  half-life: 1.9 h
Rat GnRH receptor
  IC50: 325 nM
Human GnRH receptor
  IC50: 128 nM
Mouse GnRH receptor
  IC50: 684 nM
[2]
  Human pmol/min/mg 1 μM: 544 pmol/min/mg

## COc1cc(OC)c(C(C)=O)cc1NC(=O)c1ccc(Cc2cc3c(cc2C)C(C)(C)CCC3(C)C)o1 [Compound 170]
[4]; rat male, p.o. 20 mg/kg, vehicle per footnote (DMSO/cremophor/saline)
  Fp.o.: 0 (20 mg/kg)^7%
Rat GnRH receptor
  IC50: 30 nM
Human GnRH receptor
  IC50: 50 nM
Mouse GnRH receptor
  IC50: 22 nM

## Cc1cc2c(cc1Cc1ccc(C(=O)NC[C@H]3CC[C@H](CNc4ccnc(NC[C@@H]5CCCO5)n4)CC3)o1)C(C)(C)CCC2(C)C [Compound 174]
Rat GnRH receptor
  IC50: 385 nM
Human GnRH receptor
  IC50: 220 nM
Mouse GnRH receptor
  IC50: 570 nM

## COc1cc(OC)c(NC(=O)c2ccc(Cc3cc(C)cc4c3OCCC4(C)C)o2)c(OC)c1 [Compound 190.5]
Human GnRH receptor
  IC50: 350 nM
[2]
  Human pmol/min/mg 1 μM: 1124 pmol/min/mg

## COc1cc(OC)c(NC(=O)c2ccc(Cc3cc(C(C)(C)C)ccc3OC)o2)c(OC)c1 [Compound 203]
Rat GnRH receptor
  IC50: 58 nM
Human GnRH receptor
  IC50: 130 nM
Mouse GnRH receptor
  IC50: 62 nM

## CCC(C)(C)c1ccc(OC)c(Cc2ccc(C(=O)Nc3c(OC)cccc3OC)o2)c1 [Compound 231]
Rat GnRH receptor
  IC50: 51 nM
Human GnRH receptor
  IC50: 5 nM
Mouse GnRH receptor
  IC50: 24 nM

## CCC(C)(C)c1ccc(OC)c(Cc2ccc(C(=O)Nc3c(OC)cc(OC)cc3OC)o2)c1 [Compound 232]
Rat GnRH receptor
  IC50: 5.7 nM
Human GnRH receptor
  IC50: 19 nM
Mouse GnRH receptor
  IC50: 9 nM

## COc1cc(OC)c(NC(=O)c2ccc(Cc3c(OC)cc(C)c(Cl)c3C)o2)c(OC)c1 [Compound 299]
[4]; [5]
  Cmax: 1740 nM
  Tmax: 1 h
  Fp.o.: 72% (10 mg/kg)^10
[4]; rat female
  half-life: 2.4 h
Rat GnRH receptor
  IC50: 290 nM
Human GnRH receptor
  IC50: 80 nM
Mouse GnRH receptor
  IC50: 105 nM

## COc1cc(OC)c(NC(=O)c2ccc(Cc3cc(-c4ccccc4)c(C)cc3C)o2)c(OC)c1 [Compound 302]
Rat GnRH receptor
  IC50: 220 nM
Human GnRH receptor
  IC50: 167 nM
Mouse GnRH receptor
  IC50: 119 nM
